biological target: T1, human Nav1.7 channels (Homo sapiens, UniProt Q15858); experiment: FRET assay, human Nav1.7 (EFS on FDSS); format: cell-based; settings: CHO cells expressing human Nav1.7, read-out: IC50 against Nav1.7
T1 construct: expressed in transfected cells; host or cells: CHO
Procedure: The inhibitory activities of compounds against voltage gated sodium channels are determined by methodology well known in the art.
The ability of the aryl substituted carboxamide derivatives of the formula (I) to inhibit the NaV1.3, Nav1.7 and Nav1.5 channels is measured by Fluorescence Resonance Energy Transfer (FRET) assay and electrophysiology assay described below.
This screen is used to determine the effects of compounds on human Nav1.3, human Nav1.7, and human Nav1.5 channels, utilising electrical field stimulation (EFS) system in 96-well plate format on FDSS (Hamamatsu Photonics) platform. The change of membrane potential is monitored with FRET dye pair, oxonol (DiSBAC2(3)) and coumarin (CC2-DMPE).
CHO cells expressing human Nav1.7 channels are grown in T225 flasks, in a 5% CO2 humidified incubator to about 80% confluence. Media composition consists of HAM/F12 with Glutamax 1.10% FCS, 100 units/mL Penicillin and 100 microgram/mL Hygromycin.
Protocol: • Seed each cell lines (1×10^5 cells/well) into poly-D-lysine coated 96-well plates prior to experimentation. • Incubate at 37° C. in 5% CO2 for 24 hours. • Wash each well with assay buffer (140 mM NaCl, 4.5 mM KCl, 10 mM D-Glucose, 2 mM CaCl2, 1 mM MgCl2, 10 mM HEPES, pH 7.4 adjusted with NaOH) twice. • Add 1st loading solution containing 10 microM CC2-DMPE and 0.06% Pluronic F-127 in assay buffer. • Incubate the plate at room temperature in dark for 1 hour. • Remove 1st loading solution and added 2nd loading solution containing 15 microM DiSBAC2(3), 0.555 mM VABSC-1 and 0.004% Pluronic F-127 in assay buffer. • Place the plate under the dark at room temperature for 25 minutes. • Add compound solutions into the assay plate. • Set the assay plate in FDSS and placed an EFS device on the plate. • Measure EFS-induced fluorescent response by FDSS.
The data are analyzed and reported as normalized ratios of intensities measured at […]. The process of calculating these ratios is performed as follows:
This analysis is performed using a computerized specific program designed for FDSS generated data. Fluorescence ratio values are plotted using XLfit to determine an IC50 value for each compound.

T1 sequence (Q15858 whole entry): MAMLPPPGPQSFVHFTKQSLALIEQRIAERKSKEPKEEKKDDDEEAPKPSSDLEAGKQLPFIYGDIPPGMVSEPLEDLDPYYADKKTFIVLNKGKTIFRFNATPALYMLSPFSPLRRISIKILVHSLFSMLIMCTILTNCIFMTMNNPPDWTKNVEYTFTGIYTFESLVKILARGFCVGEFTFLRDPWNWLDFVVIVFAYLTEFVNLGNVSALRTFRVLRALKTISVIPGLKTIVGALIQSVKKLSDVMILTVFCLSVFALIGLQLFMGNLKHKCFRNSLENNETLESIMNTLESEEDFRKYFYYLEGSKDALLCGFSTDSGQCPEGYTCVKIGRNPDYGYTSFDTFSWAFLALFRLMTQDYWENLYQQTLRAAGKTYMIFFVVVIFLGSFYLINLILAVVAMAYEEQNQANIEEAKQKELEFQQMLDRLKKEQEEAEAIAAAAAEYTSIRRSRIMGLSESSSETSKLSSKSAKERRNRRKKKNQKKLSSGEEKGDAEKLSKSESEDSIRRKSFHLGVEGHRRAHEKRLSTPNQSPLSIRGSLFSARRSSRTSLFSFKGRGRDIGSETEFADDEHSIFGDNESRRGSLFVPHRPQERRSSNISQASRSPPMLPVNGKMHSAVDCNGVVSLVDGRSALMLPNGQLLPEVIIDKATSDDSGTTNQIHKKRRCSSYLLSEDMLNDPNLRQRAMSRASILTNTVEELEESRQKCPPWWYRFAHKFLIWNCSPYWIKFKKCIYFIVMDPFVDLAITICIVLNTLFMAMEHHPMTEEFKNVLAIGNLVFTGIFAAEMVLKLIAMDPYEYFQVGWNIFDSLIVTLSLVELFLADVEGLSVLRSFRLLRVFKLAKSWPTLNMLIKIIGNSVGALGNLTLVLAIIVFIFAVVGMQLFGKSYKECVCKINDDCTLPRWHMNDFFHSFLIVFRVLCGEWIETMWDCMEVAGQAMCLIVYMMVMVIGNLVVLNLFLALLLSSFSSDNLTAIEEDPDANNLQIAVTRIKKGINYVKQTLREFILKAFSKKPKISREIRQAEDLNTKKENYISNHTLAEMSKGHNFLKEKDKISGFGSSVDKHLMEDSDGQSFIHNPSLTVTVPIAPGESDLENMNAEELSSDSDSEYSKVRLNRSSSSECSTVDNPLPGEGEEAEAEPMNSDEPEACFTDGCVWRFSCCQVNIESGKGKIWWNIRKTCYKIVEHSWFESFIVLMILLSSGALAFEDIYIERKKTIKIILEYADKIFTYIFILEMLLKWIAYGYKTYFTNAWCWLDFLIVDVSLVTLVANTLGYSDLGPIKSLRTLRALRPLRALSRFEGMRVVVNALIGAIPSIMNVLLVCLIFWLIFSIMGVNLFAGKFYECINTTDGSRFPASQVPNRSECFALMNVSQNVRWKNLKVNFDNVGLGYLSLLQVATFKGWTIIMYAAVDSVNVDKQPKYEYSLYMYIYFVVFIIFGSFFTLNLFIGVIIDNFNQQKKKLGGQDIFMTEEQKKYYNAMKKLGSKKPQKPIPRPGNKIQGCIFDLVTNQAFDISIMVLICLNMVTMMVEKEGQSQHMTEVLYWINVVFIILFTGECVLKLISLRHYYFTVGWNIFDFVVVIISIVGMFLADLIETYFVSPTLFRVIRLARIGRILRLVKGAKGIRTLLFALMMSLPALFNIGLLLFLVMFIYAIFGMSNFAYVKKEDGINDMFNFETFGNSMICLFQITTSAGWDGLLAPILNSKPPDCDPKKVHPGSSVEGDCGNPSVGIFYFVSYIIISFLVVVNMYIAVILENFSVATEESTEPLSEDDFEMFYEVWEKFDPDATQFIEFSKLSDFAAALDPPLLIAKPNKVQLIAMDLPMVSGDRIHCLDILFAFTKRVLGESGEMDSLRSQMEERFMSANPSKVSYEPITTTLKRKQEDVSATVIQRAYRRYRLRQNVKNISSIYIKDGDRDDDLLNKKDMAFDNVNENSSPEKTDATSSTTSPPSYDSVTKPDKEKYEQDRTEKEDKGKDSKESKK

IC50, < 1 µM:
CC(C)C(=O)Nc1cc(C(=O)NC(C)c2ccc(OCCC(F)(F)F)nc2)ccn1 (single isomer, unassigned) [Example 186, 2-isobutyramido-N-(1-(6-(3,3,3-trifluoropropoxy)pyridin-3-yl)ethyl)isonicotinamide]
CCC(=O)Nc1cc(C(=O)NC(C)c2ccc(OCC(F)(F)C(F)(F)F)nc2)ccn1 (single isomer, unassigned) [Example 1169, N-(1-(6-(2,2,3,3,3-pentafluoropropoxy)pyridin-3-yl)ethyl)-2-propionamidoisonicotinamide]
Cc1cc(C(=O)NCc2cccc(OCC(F)F)c2C)cc(NC(=O)C(C)C)n1 [Example 1131, N-(3-(2,2-difluoroethoxy)-2-methylbenzyl)-2-isobutyramido-6-methylisonicotinamide]
Cc1cc(C(C)NC(=O)c2ccnc(NC(=O)C3CC3)c2)cnc1OCC(F)F (single isomer, unassigned) [Example 553, 2-(cyclopropanecarboxamido)-N-(1-(6-(2,2-difluoroethoxy)-5-methylpyridin-3-yl)ethyl)isonicotinamide]
Cc1cc(C(=O)NC(C)c2cnc(OCC(F)(F)F)c(Cl)c2)nc(NC(=O)C(C)C)n1 (single isomer, unassigned) [Example 216, N-(1-(5-chloro-6-(2,2,2-trifluoroethoxy)pyridin-3-yl)ethyl)-2-isobutyramido-6-methylpyrimidine-4-carboxamide]
CCC(=O)Nc1cc(C(=O)NC(C)c2cnc(OCC(F)(F)F)c(F)c2)cc(C)n1 (single isomer, unassigned) [Example 131, N-(1-(5-fluoro-6-(2,2,2-trifluoroethoxy)pyridin-3-yl)ethyl)-2-methyl-6-propionamidoisonicotinamide]
Cc1cc(C(=O)NC(C)c2ccc(OCC(F)(F)F)nc2)cc(NC(=O)C2CC2)n1 (single isomer, unassigned) [Example 61, 2-(cyclopropanecarboxamido)-6-methyl-N-(1-(6-(2,2,2-trifluoroethoxy)pyridin-3-yl)ethyl)isonicotinamide]
COc1cc(CNC(=O)c2cc(C)nc(NC(C)=O)c2)cnc1OCC(F)(F)F [Example 272, 2-acetamido-N-((5-methoxy-6-(2,2,2-trifluoroethoxy)pyridin-3-yl)methyl)-6-methylisonicotinamide]
CC(=O)Nc1cc(C(=O)NC(C)c2cnc(OCC(F)(F)F)c(Cl)c2)ccn1 (single isomer, unassigned) [Example 52, 2-acetamido-N-(1-(5-chloro-6-(2,2,2-trifluoroethoxy)pyridin-3-yl)ethyl)isonicotinamide]
Cc1cc(C(=O)NCc2ccc(OCC(F)(F)C(F)(F)F)nc2)cc(NC(=O)C2CC2)n1 [Example 827, 2-(cyclopropanecarboxamido)-6-methyl-N-((6-(2,2,3,3,3-pentafluoropropoxy)pyridin-3-yl)methyl)isonicotinamide]
CC(=O)Nc1cc(C(=O)NCc2cnc(OCC(F)F)c(C3CC3)c2)cc(C)n1 [Example 1082, 2-acetamido-N-((5-cyclopropyl-6-(2,2-difluoroethoxy)pyridin-3-yl)methyl)-6-methylisonicotinamide]
Cc1cc(C(=O)NC(C)c2cnc(OCC(F)(F)F)c(Cl)c2)cc(NC(=O)C(C)C)n1 (single isomer, unassigned) [Example 521, N-(1-(5-chloro-6-(2,2,2-trifluoroethoxy)pyridin-3-yl)ethyl)-2-isobutyramido-6-methylisonicotinamide]
CCC(=O)Nc1cc(C(=O)NC(C)c2ccc(OCC(F)F)nc2OC)ccn1 (single isomer, unassigned) [Example 1161, N-(1-(6-(2,2-difluoroethoxy)-2-methoxypyridin-3-yl)ethyl)-2-propionamidoisonicotinamide]
CC(=O)Nc1cc(C(=O)NC(C)c2ccc(OCC(F)(F)F)c(Cl)c2)cc(C)n1 (single isomer, unassigned) [Example 676, 2-acetamido-N-(1-(3-chloro-4-(2,2,2-trifluoroethoxy)phenyl)ethyl)-6-methylisonicotinamide]
Cc1cc(C(=O)NCc2ccc(OCC(F)F)cc2Cl)cc(NC(=O)C(C)C)n1 [Example 1049, N-(2-chloro-4-(2,2-difluoroethoxy)benzyl)-2-isobutyramido-6-methylisonicotinamide]
CC(C)C(=O)Nc1cc(C(=O)NC(C)c2cccc(OCC(F)(F)F)c2)ccn1 (single isomer, unassigned) [Example 561, 2-isobutyramido-N-(1-(3-(2,2,2-trifluoroethoxy)phenyl)ethyl)isonicotinamide]
Cc1cc(C(=O)N[C@H](C)c2cccc(C(F)(F)F)c2)cc(NC(=O)C(C)C)n1 (single isomer, unassigned) [Example 531]
Cc1cc(C(=O)NC(C)c2cccc(OC(F)(F)F)c2)cc(NC(=O)C2CC2)n1 (single isomer, unassigned) [Example 839, 2-(cyclopropanecarboxamido)-6-methyl-N-(1-(3-(trifluoromethoxy)phenyl)ethyl)isonicotinamide]
CCC(=O)Nc1cc(C(=O)NCc2ccnc(OCC(F)(F)F)c2)cc(C)n1 [Example 137, 2-methyl-6-propionamido-N-((2-(2,2,2-trifluoroethoxy)pyridin-4-yl)methyl)isonicotinamide]
CCc1cc(CNC(=O)c2ccnc(NC(=O)C3CC3)c2)cnc1OCC(F)F [Example 931, 2-(cyclopropanecarboxamido)-N-((6-(2,2-difluoroethoxy)-5-ethylpyridin-3-yl)methyl)isonicotinamide]
COc1cc(C(C)NC(=O)c2cc(C)nc(NC(C)=O)c2)cnc1OCC(F)(F)F (single isomer, unassigned) [Example 330, 2-acetamido-N-(1-(5-methoxy-6-(2,2,2-trifluoroethoxy)pyridin-3-yl)ethyl)-6-methylisonicotinamide]
Cc1cc(C(=O)NCc2cnc(OCC(F)(F)F)c(Br)c2)cc(NC(=O)C(C)C)n1 [Example 901, N-((5-bromo-6-(2,2,2-trifluoroethoxy)pyridin-3-yl)methyl)-2-isobutyramido-6-methylisonicotinamide]
CCc1cc(C(C)NC(=O)c2cc(C)nc(NC(=O)C(C)C)c2)cnc1OCC(F)F (single isomer, unassigned) [Example 893, N-(1-(6-(2,2-difluoroethoxy)-5-ethylpyridin-3-yl)ethyl)-2-isobutyramido-6-methylisonicotinamide]
Cc1cc(C(=O)NC(C)c2ccc(OCC(F)(F)F)c(Cl)c2)cc(NC(=O)C(C)C)n1 (single isomer, unassigned) [Example 678, N-(1-(3-chloro-4-(2,2,2-trifluoroethoxy)phenyl)ethyl)-2-isobutyramido-6-methylisonicotinamide]
